Source: US5298523A, “Method for treating transplant patients using mycalamide compounds” (priority 1992, dated 1994)
≈ marks a conversion by molar mass, not a printed value. Like-named read-outs stand apart in the source and are kept apart here.

How the values were obtained:
Format in all cases: cell-based
murine splenocytes = test: Mitogen-induced proliferation of murine splenocytes; details: for activity at 0.5 µg/mL / activity at 0.05 µg/mL / activity at 0.005 µg/mL / activity at 0.0005 µg/mL / activity at 50 pg/mL: Mus musculus, Splenocyte; for activity at 0.5 µg/mL: 5.0 × 10^-1 μg/ml; for activity at 0.05 µg/mL: 5.0 × 10^-2 μg/ml; for activity at 0.005 µg/mL: 5.0 × 10^-3 μg/ml; for activity at 0.0005 µg/mL: 5.0 × 10^-4 μg/ml; for activity at 50 pg/mL: 5.0 × 10^-5 μg/ml
Method: (§1) Preparation of splenocyte cell suspensions. […] The resulting supernatant was then transferred to another sterile centrifuge tube, and the cell concentration adjusted to 2×10^6 cells/ml dilution with TCM.
Mitogen studies. The effects of mycalamide A on the mitogen-induced proliferation of murine splenocytes was investigated. Splenocytes (2×10^5 /well) from C57BL/6J or BALB/c mice were incubated with 1.0 μg/ml of Con A, 10 μg/ml of phytohemagglutinin (PHA), lipopolysaccharide (LPS) or pokeweed mitogen (PWM) and various concentrations of mycalamide A at 37° C. in a 5% CO2, humidified atmosphere for 90 hours. A volume of […] of a 20.0 μCi/ml of ^3 H-thymidine was added to each well, and the plates incubated for an additional 6 hours. Plates were harvested, and ^3 H-thymidine incorporation determined by counting samples in a liquid scintillation counter.

[1] = tested on: two-way murine mixed lymphocyte response (C57BL/6J and BALB/c splenocytes); test: Two-way murine mixed lymphocyte reaction (MLR), 3H-thymidine incorporation
Method: as §1
Two way mixed lymphocyte reaction (MLR). The immunosuppressive properties of mycalamide A were evaluated using the two-way MLR, utilizing murine splenocytes and human PBL. For the murine MLR, splenocytes from C57Bl/6J and BALB/c mice were prepared as described above, and a volume of […] of each cell suspension was added together to test and control wells of microtiter plates. Wells containing 0.20 ml of each cell suspension alone served as controls.
Dilutions of the drug to be tested were prepared in absolute EtOH and further diluted to the appropriate concentration in TCM and added directly to the wells containing splenocyte combinations. Additional solvent (EtOH) control wells were also prepared by adding the equivalent percentage of EtOH to each culture well. Plates were incubated at 37° C. in a 5% CO2 humidified atmosphere for 88 hours. Following the incubation, 1.0 μCi of ^3 H-thymidine was added to each well, and the plates were returned to the incubator for 5 hours. The contents of each well were harvested onto glass-fiber filter strips, and the incorporation of ^3 H-thymidine was determined by a liquid scintillation counter. Similar conditions were utilized for MLR cultures using human peripheral blood lymphocytes prepared from unrelated donors as described above, with the exception that the initial incubation and subsequent ^3 H-thymidine pulse times were different (114 hours for initial incubation followed by a 6-hour incubation with ^3 H-thymidine). Plates were harvested in a similar manner, and ^3 H-thymidine incorporation determined as described above.

[2] = Lymphocyte viability assay (LCV, MTT) on human PBL; details: for viability: human MLR, MTT
Method: Preparation of human peripheral blood leukocyte (PBL) suspensions. Human peripheral blood suspensions were prepared from Leukotrap blood filters as follows: Leukotrap filters containing processed leukocytes from random, unrelated blood donors were obtained from the Indian River Blood Bank (Vero Beach, Fla.). Buffy-coat blood cell suspensions were recovered by reverse-flow phosphate-buffered saline purging and centrifugation for 15 minutes at 475× g. Buffy coats were removed, and 5 ml of the suspension was layered onto 5 ml of Histopaque gradient material. The Histopaque gradients were centrifuged at 475× g for 30 minutes. Lymphocytes were removed from the Histopaque-medium interface, and washed twice with 10 ml of PBS (Dulbecco's phosphate-buffered saline without CaCl2 and MgCl2.6H2 O). The final cell pellet was resuspended in TCM, and the cell concentration adjusted to 2×10^6 cells/ml.
Determination of mycalamide A toxicity. The toxicity of mycalamide A on murine splenocytes and human PBL was determined using a colorimetric assay, based on the ability of viable cells to convert the colorless tetrazolium salt, 3-(4,5-dimethylthiazol-2yl)-2,5-diphenyl tetrazolium bromide (MTT) to a colored formazan product and trypan blue exclusion. For the colorimetric assay, a volume of 0.075 ml of an MTT solution (550 μg/ml of MTT in TCM) was added to test and control wells containing one of the populations of splenocytes or test wells and incubated for 5-6 hours following the initial incubation period. Microtiter plates were centrifuged at 100× g, supernatants carefully removed, and a volume of 0.20 ml of isopropyl alcohol was added to each well to dissolve the formazan crystals. The absorbance at 570 nm was determined for each well using an ELISA plate reader. […] As an additional parameter of toxicity, wells containing cultured lymphocytes with various dilutions of mycalamide A were examined with trypan blue, and the percentage of dye-excluding (viable) cells was determined.

[3] = Con A, read-out: Con A, % of control
[4] = LPS, read-out: LPS, % of control
[5] = PHA, read-out: PHA, % of control
[6] = PWM, read-out: PWM, % of control

For C=C1CC(OC)(C(O)C(=O)NC2OCOC3C2OC(CC(O)CO)C(C)(C)C3OC)OC(C)C1C (stereo not shown) [Mycalamide A, mycalamide A], the “suppression of Con A, LPS, and PWM stimulation” value (murine splenocytes; 5×10^-5 μg/ml, Con A, LPS, PWM, in words) was “suppressed”, the activity at 0.5 µg/mL (murine splenocytes; [3]) was 0% and the activity at 0.05 µg/mL (murine splenocytes; [3]) was 0%. It also gave an activity at 0.005 µg/mL (murine splenocytes; [3]) of 0%, an activity at 0.0005 µg/mL (murine splenocytes; [3]) of 0% and an activity at 50 pg/mL (murine splenocytes; [3]) of 0%. It also gave an activity at 0.5 µg/mL (murine splenocytes; [4]) of 0%, an activity at 0.05 µg/mL (murine splenocytes; [4]) of 0% and an activity at 0.005 µg/mL (murine splenocytes; [4]) of 0%. For the same compound, the activity at 0.0005 µg/mL (murine splenocytes; [4]) was 0%, the activity at 50 pg/mL (murine splenocytes; [4]) was 68% and the activity at 0.5 µg/mL (murine splenocytes; [5]) was 0%. The activity at 0.05 µg/mL (murine splenocytes; [5]) was 0%, the activity at 0.005 µg/mL (murine splenocytes; [5]) was 0% and the activity at 0.0005 µg/mL (murine splenocytes; [5]) was 38%. It also gave an activity at 50 pg/mL (murine splenocytes; [5]) of 139%, an activity at 0.5 µg/mL (murine splenocytes; [6]) of 0% and an activity at 0.05 µg/mL (murine splenocytes; [6]) of 0%. The activity at 0.005 µg/mL (murine splenocytes; [6]) was 0%, the activity at 0.0005 µg/mL (murine splenocytes; [6]) was 0% and the activity at 50 pg/mL (murine splenocytes; [6]) was 62%. The activity at 5 µg/mL ([1]; Mus musculus, Splenocyte, 5.0 × 10^0 μg/ml, read-out: % of Positive Control MLR) was 0%, the activity at 50 µg/mL ([1]; Mus musculus, Splenocyte, 5.0 × 10^1 μg/ml, read-out: % of Positive Control MLR) was 0% and the activity at 500 µg/mL ([1]; Mus musculus, Splenocyte, 5.0 × 10^2 μg/ml, read-out: % of Positive Control MLR) was 0%. The activity at 0.5 µg/mL ([1]; Mus musculus, Splenocyte, 5.0 × 10^-1 μg/ml, read-out: % of Positive Control MLR) was 0%, the activity at 0.05 µg/mL ([1]; Mus musculus, Splenocyte, 5.0 × 10^-2 μg/ml, read-out: % of Positive Control MLR) was 0% and the activity at 0.005 µg/mL ([1]; Mus musculus, Splenocyte, 5.0 × 10^-3 μg/ml, read-out: % of Positive Control MLR) was 0%. It also gave an activity at 0.0005 µg/mL ([1]; Mus musculus, Splenocyte, 5.0 × 10^-4 μg/ml, read-out: % of Positive Control MLR) of 0%, an activity at 50 pg/mL ([1]; Mus musculus, Splenocyte, 5.0 × 10^-5 μg/ml, read-out: % of Positive Control MLR) of 0% and an activity at 5 pg/mL ([1]; Mus musculus, Splenocyte, 5.0 × 10^-6 μg/ml, read-out: % of Positive Control MLR) of 0%. For the same compound, the activity at 500 fg/mL ([1]; Mus musculus, Splenocyte, 5.0 × 10^-7 μg/ml, read-out: % of Positive Control MLR) was 0%, the activity at 50 fg/mL ([1]; Mus musculus, Splenocyte, 5.0 × 10^-8 μg/ml, read-out: % of Positive Control MLR) was 0% and the activity at 5 fg/mL ([1]; Mus musculus, Splenocyte, 5.0 × 10^-9 μg/ml, read-out: % of Positive Control MLR) was 0%. The activity at 5e-10 µg/mL ([1]; Mus musculus, Splenocyte, 5.0 × 10^-10 μg/ml, read-out: % of Positive Control MLR) was 0%, the activity at 5e-11 µg/mL ([1]; Mus musculus, Splenocyte, 5.0 × 10^-11 μg/ml, read-out: % of Positive Control MLR) was 0% and the activity at 5e-12 µg/mL ([1]; Mus musculus, Splenocyte, 5.0 × 10^-12 μg/ml, read-out: % of Positive Control MLR) was 0%. For the same compound, the activity at 5e-13 µg/mL ([1]; Mus musculus, Splenocyte, 5.0 × 10^-13 μg/ml, read-out: % of Positive Control MLR) was 0%, the activity at 5e-14 µg/mL ([1]; Mus musculus, Splenocyte, 5.0 × 10^-14 μg/ml, read-out: % of Positive Control MLR) was 0% and the activity at 5e-15 µg/mL ([1]; Mus musculus, Splenocyte, 5.0 × 10^-15 μg/ml, read-out: % of Positive Control MLR) was 0%. The activity at 5e-16 µg/mL ([1]; Mus musculus, Splenocyte, 5.0 × 10^-16 μg/ml, read-out: % of Positive Control MLR) was 0%, the activity at 5e-17 µg/mL ([1]; Mus musculus, Splenocyte, 5.0 × 10^-17 μg/ml, read-out: % of Positive Control MLR) was 85% and the activity at 5e-18 µg/mL ([1]; Mus musculus, Splenocyte, 5.0 × 10^-18 μg/ml, read-out: % of Positive Control MLR) was 82%. For the same compound, the activity at 5e-19 µg/mL ([1]; Mus musculus, Splenocyte, 5.0 × 10^-19 μg/ml, read-out: % of Positive Control MLR) was 128%, the “range of concentrations that suppressed the MLR” value ([1]; murine) was 5×10^2 to 5×10^-16 μg/ml and the viability ([2]; 5.0 × 10^-1 μg/ml) was 42%. The viability ([2]; 5.0 × 10^-2 μg/ml) was 52%, the viability ([2]; 5.0 × 10^-3 μg/ml) was 46% and the viability ([2]; 5.0 × 10^-4 μg/ml) was 128%. It also gave a viability ([2]; 5.0 × 10^-5 μg/ml) of 111%, a viability ([2]; 5.0 × 10^-6 μg/ml) of 114% and a viability ([2]; 5.0 × 10^-7 μg/ml) of 116%. The CC50 ([2]; read-out: TC50 (LCV)) was 0.083 µg/mL (≈ 0.165 µM).
